Key:
COS7 cells = assay: Cell proliferation assay; format: cell-based, monkey; conditions: WST, 48 h
ES cells = conditions: read-out: GI50 in ES cells; several ES cells; cited from earlier work
EWS-FLI1 = target: T1, EWS-FLI1 (Homo sapiens, UniProt Q01543+Q01844); conditions: binding to EWS-FLI1; cited from earlier work
T1 sequence (Q01844 1-264): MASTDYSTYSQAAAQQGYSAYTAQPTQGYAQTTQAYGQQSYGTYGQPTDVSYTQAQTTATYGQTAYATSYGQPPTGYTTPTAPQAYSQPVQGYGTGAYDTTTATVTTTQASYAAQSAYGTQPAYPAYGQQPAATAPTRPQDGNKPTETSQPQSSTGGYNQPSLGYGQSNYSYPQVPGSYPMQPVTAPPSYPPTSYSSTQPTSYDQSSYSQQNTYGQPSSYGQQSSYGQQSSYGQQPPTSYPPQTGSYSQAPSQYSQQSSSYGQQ
T1 sequence (Q01543 220-452): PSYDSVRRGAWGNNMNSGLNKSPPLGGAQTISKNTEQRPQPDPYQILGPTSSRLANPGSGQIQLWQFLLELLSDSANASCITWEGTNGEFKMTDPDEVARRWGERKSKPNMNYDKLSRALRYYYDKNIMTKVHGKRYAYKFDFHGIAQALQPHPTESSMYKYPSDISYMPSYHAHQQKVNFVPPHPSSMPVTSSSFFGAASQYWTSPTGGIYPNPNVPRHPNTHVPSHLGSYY

TC32 cells = conditions: TC32 cells; cited from earlier work
ES orthotopic xenografts = conditions: cited from earlier work

COc1ccc(C(=O)CC2(O)C(=O)Nc3c(Cl)ccc(Cl)c32)cc1 (centres unmarked) [compound 2, YK-4-279]
Cytotoxicity / effect on COS7 cell proliferation in words (COS7 cells): negligible effect | GI50 (ES cells): 500 to 2000 nM | Kd (EWS-FLI1): 9.48 µM | GI50 in TC32 cells (TC32 cells): 0.9 µM | Growth of ES orthotopic xenografts in words (ES orthotopic xenografts): reduces the growth
